Laboratory results: patent US7288659B2, “Acylaminothiazole derivatives, their preparation and therapeutic use” (Sanofi-Aventis, priority 2001, dated 2007)
Structures can show the parent of a compound that is named as a salt.

Structure (SMILES) | melting point
CCC[C@H](NC(=O)Cc1cc(F)cc(F)c1)C(=O)Nc1nc(C)c(-c2ccccc2COC2CCN(C)CC2)s1 (as salt: phosphate) [compound 68, (2S)-N-(5-{2-[(N-methylpiperidin-4-yloxy)methyl]-phenyl}-4-methyl-1,3-thiazol-2-yl)-2-{[2-(3,5-difluorophenyl)acetyl]amino}pentanamide] | 186 °C
CC(NC(=O)Cc1cc(F)cc(F)c1)C(=O)Nc1ncc(-c2ccccc2COc2ccccc2)s1 (centres unmarked) [Compound No. 5, 2-{[2-(3,5-difluorophenyl)acetyl]amino}-N-{5-[2-(phenoxymethyl)phenyl]-1,3-thiazol-2-yl}propanamide] | 114 °C
CC(NC(=O)Cc1cc(F)cc(F)c1)C(=O)Nc1ncc(-c2ccccc2COCc2ccccc2)s1 (centres unmarked) [Compound No. 6, N-(5-{2-[(benzyloxy)methyl]phenyl}-1,3-thiazol-2-yl)-2-{[2-(3,5-difluorophenyl)acetyl]amino}propanamide] | 147 °C
CCC[C@H](NC(=O)Cc1cc(F)cc(F)c1)C(=O)Nc1ncc(-c2ccc(OC)cc2COC(C)C)s1 [Compound No. 75, (2S)-2-{[2-(3,5-difluorophenyl)acetyl]amino}-N-(5-{2-(isopropoxymethyl)-4-methoxyphenyl}-1,3-thiazol-2-yl)pentanamide] | 73.9 °C
CCOCc1ccccc1-c1cnc(NC(=O)C(C)NC(=O)Cc2cc(F)cc(F)c2)s1 (centres unmarked) [compound 3, 2-{[2-(3,5-difluorophenyl)acetyl]amino}-N-{5-[2-(ethoxymethyl)phenyl]-1,3-thiazol-2-yl}propanamide] | 165 °C
CC(C)COCc1ccccc1-c1cnc(NC(=O)C(C)NC(=O)Cc2cc(F)cc(F)c2)s1 (centres unmarked) [compound 4, 2-{[2-(3,5-difluorophenyl)acetyl]amino}-N-{5-[2-(isobutoxymethyl)phenyl]-1,3-thiazol-2-yl}propanamide] | 181 °C
CC(NC(=O)Cc1ccccc1)C(=O)Nc1ncc(-c2ccccc2COC2CCCCC2)s1 (centres unmarked) [compound 11, N-(5-{2-[(cyclohexyloxy)methyl]phenyl}-1,3-thiazol-2-yl}-2-[(2-phenylacetyl)amino]propanamide] | 162 °C
Cc1nc(NC(=O)C(C)NC(=O)Cc2cc(F)cc(F)c2)sc1-c1ccccc1COC1CCCCC1 (centres unmarked) [compound 12, N-(5-{2-[(cyclohexyloxy)methyl]phenyl}-4-methyl-1,3-thiazol-2-yl)-2-{[2-(3,5-difluorophenyl)acetyl]-amino}propanamide] | 152 °C
COCc1ccccc1-c1cnc(NC(=O)C(C)NC(=O)Cc2cc(F)cc(F)c2)s1 (centres unmarked) [compound 13, 2-{[2-(3,5-difluorophenyl)acetyl]amino}-N-{5-[2-(methoxymethyl)phenyl]-1,3-thiazol-2-yl}propanamide] | 194 °C
Cc1nc(NC(=O)C(C)NC(=O)Cc2cc(F)cc(F)c2)sc1-c1ccccc1COC1CCCC1 (centres unmarked) [compound 14, N-(5-{2-[(cyclopentyloxy)methyl]phenyl}-4-methyl-1,3-thiazol-2-yl)-2-{[2-(3,5-difluorophenyl)acetyl]-amino}propanamide] | 104 °C
Cc1cccc(CC(=O)N[C@@H](C)C(=O)Nc2ncc(-c3ccccc3COC3CCCCC3)s2)c1 [compound 16, (2S)-N-(5-{2-[(cyclohexyloxy)methyl]phenyl}-1,3-thiazol-2-yl)-2-{[2-(3-methylphenyl)acetyl]amino}-propanamide] | 98 °C
Cc1ccc(CC(=O)N[C@@H](C)C(=O)Nc2ncc(-c3ccccc3COC3CCCCC3)s2)cc1 [compound 17, (2S)-N-(5-{2-[(cyclohexyloxy)methyl]phenyl}-1,3-thiazol-2-yl)-2-{[2-(4-methylphenyl)acetyl]amino}-propanamide] | 239 °C
C[C@H](NC(=O)Cc1cccc(Cl)c1)C(=O)Nc1ncc(-c2ccccc2COC2CCCCC2)s1 [compound 18, (2S)-2-{[2-(3-chlorophenyl)acetyl]amino}-N-{5-{2-[(cyclohexyloxy)methyl]phenyl}-1,3-thiazol-2-yl}propanamide] | 96 °C
C[C@H](NC(=O)Cc1cc(F)cc(F)c1)C(=O)Nc1ncc(-c2ccccc2COc2ccccc2)s1 [compound 21, (2S)-2-{[2-(3,5-difluorophenyl)acetyl]amino}-N-{5-[2-(phenoxymethyl)phenyl]-1,3-thiazol-2-yl}propanamide] | 78 °C
CC(C)OCc1ccccc1-c1cnc(NC(=O)[C@H](C)NC(=O)Cc2cc(F)cc(F)c2)s1 [compound 22, (2S)-2-{[2-(3,5-difluorophenyl)acetyl]amino}-N-{5-[2-(isopropoxymethyl)phenyl]-1,3-thiazol-2-yl}propanamide] | 136 °C
Cc1nc(NC(=O)[C@H](C)NC(=O)Cc2cc(F)cc(F)c2)sc1-c1ccccc1COC1CCCCC1 [compound 23, (2S)-N-(5-{2-[(cyclohexyloxy)methyl]phenyl}-4-methyl-1,3-thiazol-2-yl)-2-{[2-(3,5-difluorophenyl)-acetyl]amino}propanamide] | 85 °C
C[C@H](NC(=O)Cc1cc(F)cc(F)c1)C(=O)Nc1ncc(-c2cccc(COC3CCCCC3)c2)s1 [compound 24, (2S)-N-(5-{3-[(cyclohexyloxy)methyl]phenyl}-1,3-thiazol-2-yl)-2-{[2-(3,5-difluorophenyl)acetyl]amino}-propanamide] | 123 °C

Second part, the molecule after the results:

melting point | Structure (SMILES)
169 °C | C[C@H](NC(=O)[C@H](O)c1cc(F)cc(F)c1)C(=O)Nc1ncc(-c2ccccc2COC2CCCCC2)s1 (racemic) [Compound No. 50, (2S)-N-(5-{2-[(cyclohexyloxy)methyl]phenyl}-1,3-thiazol-2-yl)-2-{[(2R)-2-(3,5-difluorophenyl)-2-hydroxyacetyl]amino}propanamide]
78 °C | C[C@H](NC(=O)[C@H](F)c1cc(F)cc(F)c1)C(=O)Nc1ncc(-c2ccccc2COC2CCCCC2)s1 (racemic) [Compound No. 65, (2S)-N-(5-{2-[(cyclohexyloxy)methyl]phenyl}-1,3-thiazol-2-yl)-2-{[(2R)-2-(3,5-difluorophenyl)-2-fluoroacetyl]amino}propanamide]
126 °C | CC(NC(=O)Cc1cc(F)cc(F)c1)C(=O)Nc1ncc(-c2ccccc2COC2CCCCC2)s1 (centres unmarked) [Compound No. 2, N-(5-{2-[(cyclohexyloxy)methyl]phenyl}-1,3-thiazol-2-yl)-2-{[2-(3,5-difluorophenyl)acetyl]amino}propanamide]
140 °C | C[C@H](NC(=O)Cc1cc(F)cc(F)c1)C(=O)Nc1ncc(-c2ccccc2COC2CCCCC2)s1 [Compound No. 26, (2S)-N-(5-{2-[(cyclohexyloxy)methyl]phenyl}-1,3-thiazol-2-yl)-2-{[2-(3,5-difluorophenyl)acetyl]amino}-propanamide]
159 °C | C[C@H](NC(=O)[C@@H](O)c1cc(F)cc(F)c1)C(=O)Nc1ncc(-c2ccccc2COC2CCCCC2)s1 [Compound No. 51, (2S)-N-(5-{2-[(cyclohexyloxy)methyl]phenyl}-1,3-thiazol-2-yl)-2-{[(2S)-2-(3,5-difluorophenyl)-2-hydroxyacetyl]amino}propanamide]
88 °C | CCC[C@H](NC(=O)C(C)c1cc(F)cc(F)c1)C(=O)Nc1ncc(-c2ccccc2COC2CCCCC2)s1 (stereo partly drawn) [Compound No. 58, (2S)-N-(5-{2-[(cyclohexyloxy)methyl]phenyl}-1,3-thiazol-2-yl)-2-{[2-(3,5-difluorophenyl)propanoyl]-amino}pentanamide]
78 °C | C[C@H](NC(=O)C(=O)c1cc(F)cc(F)c1)C(=O)Nc1ncc(-c2ccccc2COC2CCCCC2)s1 [Compound No. 61, (2S)-N-(5-{2-[(cyclohexyloxy)methyl]phenyl}-1,3-thiazol-2-yl)-2-{[2-(3,5-difluorophenyl)-2-oxoacetyl]-amino}propanamide]
158 °C | C[C@H](NC(=O)[C@@H](F)c1cc(F)cc(F)c1)C(=O)Nc1ncc(-c2ccccc2COC2CCCCC2)s1 [Compound No. 66, (2S)-N-(5-{2-[(cyclohexyloxy)methyl]phenyl}-1,3-thiazol-2-yl)-2-{[(2S)-2-(3,5-difluorophenyl)-2-fluoroacetyl]amino}propanamide]
143 °C | CC(NC(=O)Cc1cc(F)cc(F)c1)C(=O)Nc1ncc(-c2ccccc2COCC2CCCCC2)s1 (centres unmarked) [compound 8, N-(5-{2-[(cyclohexylmethoxy)methyl]phenyl}-1,3-thiazol-2-yl)-2-{[2-(3,5-difluorophenyl)acetyl]amino}-propanamide]
179 °C | CCC(NC(=O)Cc1cc(F)cc(F)c1)C(=O)Nc1ncc(-c2ccccc2COC2CCCCC2)s1 (centres unmarked) [compound 9, N-(5-{2-[(cyclohexyloxy)methyl]phenyl}-1,3-thiazol-2-yl}-2-{[2-(3,5-difluorophenyl)acetyl]amino}butanamide]
181 °C | CC(C)C(NC(=O)Cc1cc(F)cc(F)c1)C(=O)Nc1ncc(-c2ccccc2COC2CCCCC2)s1 (centres unmarked) [compound 10, N-(5-{2-[(cyclohexyloxy)methyl]phenyl}-1,3-thiazol-2-yl}-2-{[2-(3,5-difluorophenyl)acetyl]amino}-3-methylbutanamide]
172 °C | O=C(Cc1cc(F)cc(F)c1)NCC(=O)Nc1ncc(-c2ccccc2COC2CCCCC2)s1 [compound 15, N-{2-[(5-{2-[(cyclohexyloxy)methyl]phenyl}-1,3-thiazol-2-yl)amino]-2-oxoethyl}-2-(3,5-difluorophenyl)-acetamide]
98 °C | C[C@H](NC(=O)Cc1cccc(F)c1)C(=O)Nc1ncc(-c2ccccc2COC2CCCCC2)s1 [compound 19, (2S)-N-(5-{2-[(cyclohexyloxy)methyl]phenyl}-1,3-thiazol-2-yl)-2-{[2-(3-fluorophenyl)acetyl]amino}-propanamide]
70 °C | C[C@H](NC(=O)Cc1ccc(F)cc1)C(=O)Nc1ncc(-c2ccccc2COC2CCCCC2)s1 [compound 20, (2S)-N-(5-{2-[(cyclohexyloxy)methyl]phenyl}-1,3-thiazol-2-yl)-2-{[2-(4-fluorophenyl)acetyl]amino}-propanamide]
95 °C | C[C@@H](NC(=O)Cc1cc(F)cc(F)c1)C(=O)Nc1ncc(-c2ccccc2COC2CCCCC2)s1 [compound 25, (2R)-N-(5-{2-[(cyclohexyloxy)methyl]phenyl}-1,3-thiazol-2-yl)-2-{[2-(3,5-difluorophenyl)acetyl]amino}-propanamide]
